Results from patent publication US7238716B2, “Alkanoic acid derivatives process for their production and use thereof” (Takeda Pharmaceuticals Company Limited, priority 2000, dated 2007).

biological target: T1, PPARγ-RXRα heterodimer (Homo sapiens, UniProt P37231); experiment: PPARγ-RXRα heterodimer ligand activity, luciferase reporter in PPARγ:RXRα:4ERPP/CHO-K1 cells (Test Example 3); format: cell-based; details: concentration for 50% of the maximum fold induction of luciferase activity; 48 hours, CHO-K1 cells
T1 construct: expressed in transfected cells; host or cells: CHO-K1
T1 sequence (P37231 1-477 isoform P37231-2): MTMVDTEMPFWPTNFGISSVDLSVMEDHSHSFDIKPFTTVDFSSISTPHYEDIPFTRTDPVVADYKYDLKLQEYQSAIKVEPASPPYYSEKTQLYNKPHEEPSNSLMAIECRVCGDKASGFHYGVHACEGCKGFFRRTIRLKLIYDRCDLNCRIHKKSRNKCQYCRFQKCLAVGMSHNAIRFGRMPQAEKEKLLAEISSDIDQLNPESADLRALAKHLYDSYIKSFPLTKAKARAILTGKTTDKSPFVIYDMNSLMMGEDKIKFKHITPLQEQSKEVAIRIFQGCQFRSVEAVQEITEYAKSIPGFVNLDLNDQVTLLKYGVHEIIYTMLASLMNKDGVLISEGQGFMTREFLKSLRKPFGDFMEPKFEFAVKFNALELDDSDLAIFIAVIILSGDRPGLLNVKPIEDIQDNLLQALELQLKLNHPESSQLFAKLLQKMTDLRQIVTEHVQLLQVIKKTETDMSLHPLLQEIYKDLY
T1 sequence (P19793 1-462 partner): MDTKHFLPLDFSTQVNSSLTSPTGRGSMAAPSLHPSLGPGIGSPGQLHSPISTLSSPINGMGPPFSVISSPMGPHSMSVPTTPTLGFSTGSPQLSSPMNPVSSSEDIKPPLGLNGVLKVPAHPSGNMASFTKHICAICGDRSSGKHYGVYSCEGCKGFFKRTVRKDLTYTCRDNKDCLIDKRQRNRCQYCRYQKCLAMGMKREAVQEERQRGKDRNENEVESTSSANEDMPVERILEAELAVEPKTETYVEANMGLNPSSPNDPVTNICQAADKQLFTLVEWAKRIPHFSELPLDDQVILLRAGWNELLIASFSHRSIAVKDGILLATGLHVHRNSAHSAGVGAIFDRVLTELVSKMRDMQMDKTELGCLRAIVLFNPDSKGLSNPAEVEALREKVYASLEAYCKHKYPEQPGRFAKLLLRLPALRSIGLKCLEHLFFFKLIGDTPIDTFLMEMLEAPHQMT
Protocol: A PPARγ:RXRα:4ERPP/CHO-K1 cells obtained in Reference Example 5 described later were cultured in HAM F12 medium (produced by NISSUI SEIYAKU) containing 10% Fetal bovine serum (produced by Life Technologies, Inc., USA) and then inoculated to a 96-well white plate (produced by Corning Costar Corporation, USA) at the density of 2×10^4 cells/well, and cultured in a CO2 gas incubator at 37° C. overnight.
After washing the 96 well white plate with PBS (Phosphate-buffered saline), 90 μl of HAM F12 medium containing 0.1% fatty acid-free bovine serum albumin (BSA) and 10 μl of test compound were added, which was cultured in a CO2 gas incubator at 37° C. for 48 hours. After removing the medium, 40 μl of PIKKAGENE 7.5 (produced by Wako Pure Chemical Industries, Ltd.) was added. After stirring, the luciferase activity was determined using Lumistar (produced by BMG Labtechnologies GmbH, Germany).
A fold induction was calculated based on the luciferase activity of each test compound by taking the luciferase activity in the test compound non administration group as 1. The values of the test compound, concentration and the fold induction were analyzed using PRISM 2.01 (produced by GraphPad Software Inc. USA) to calculate the EC50 values, the effective concentration of a test compound for 50% of the maximum fold induction.
After a CHO-K1 cell cultured in a 750 ml tissue culture flask (produced by Corning-Costar Corporation, USA) containing HAM F12 medium (produced by NISSUI SEIYAKU) supplemented with 10% Fetal Bovine Serum (produced by Life Technologies, Inc., USA) was scraped by treating with 0.5 g/L trypsin-0.2 g/L EDTA (ethylenediaminetetraacetic acid) (produced by Life Technologies, Inc., USA), the cell was washed with PBS (phosphate buffered saline) (produced by Life Technologies, Inc., USA), centrifuged (1000 rpm, 5 minutes), and then suspended in PBS. Subsequently, a DNA was introduced into the cell under the condition shown below using GENE PULSER (produced by Bio-Rad Laboratories, USA).
Namely, to a cuvette having a 0.4 cm gap, added were 8×10^6 cells and 10 μg of plasmid pVgRXR2-hPPARγ obtained in Reference Example 3 and 10 μg of reporter plasmid pGL3-4ERPP-TK neo obtained in Reference Example 4, which was subjected to electroporation at the voltage of 0.25 kV under the capacitance of 960 μF. Subsequently, the cell was transferred into a HAM F12 medium containing 10% Fetal Bovine. Serum and cultured for 24 hours. Then the cell was scraped again and centrifuged, and then suspended in HAM F12 medium containing 10% Fetal Bovine Serum supplemented with 500 μg/ml of GENETICIN (produced by Life Technologies, Inc., USA) and 250 μg/ml of ZEOCIN (produced by Invitrogen, USA). The suspension was diluted to the density of 10^4 cells/ml, and inoculated to a 96-well plate (produced by Corning Costar Corporation, USA), which was cultured in a CO2 gas incubator at 37° C., whereby obtaining a GENETICIN- and ZEOCIN-resistant transformant.
Subsequently, after the transformant cell line thus obtained was cultured in a 24-well plate (produced by Corning Costar Corporation, USA), selected was a cell line, PPARγ:RXRα:4ERPP/CHO-K1 cell, in which the luciferase was expressed and induced by addition of 10 μM pioglitazone hydrochloride.

Row | SMILES | EC50
1 | Cc1oc(-c2ccccc2)nc1CN(C(=O)OC(C)(C)C)c1ccc(COc2ccccc2CC(=O)O)cc1 [Example 60, 2-[2-[4-[(t-butoxycarbonyl)[(5-methyl-2-phenyl-4-oxazolyl)methyl]amino]benzyloxy]phenyl]acetic acid] | 0.0061 µM
2 | CCOc1cc(OCc2ccc(OCc3nc(-c4ccccc4)oc3C)cc2)ccc1CCC(=O)O [Example 66, 3-[2-ethoxy-4-[4-[(5-methyl-2-phenyl-4-oxazolyl)methoxy]benzyloxy]phenyl]propionic acid] | 0.94 µM

tested on: not given; experiment: not given; details: not given

Row | SMILES | melting point
3 | Cc1oc(-c2ccccc2)nc1/C=C/c1ccc(COc2ccccc2CC(=O)O)cc1 [Example 95, 2-[2-[4-[(E)-2-(5-methyl-2-phenyl-4-oxazolyl)ethenyl]benzyloxy]phenyl]acetic acid] | 189 to 190 °C
4 | COC(=O)Cc1ccccc1OCc1cc(OCc2nc(-c3ccccc3)sc2C)no1 [Example 113, methyl 2-[2-[[3-[(5-methyl-2-phenyl-4-thiazolyl)methoxy]-5-isoxazolyl]methoxy]phenyl]acetate] | 108 to 109 °C
5 | Cc1sc(-c2ccccc2)nc1COc1cc(COc2ccccc2CC(=O)O)on1 [Example 114, 2-[2-[[3-[(5-methyl-2-phenyl-4-thiazolyl)methoxy]-5-isoxazolyl]methoxy]phenyl]acetic acid] | 147 to 148 °C
6 | COC(=O)Cc1ccccc1OCc1cc(OCCc2nc(-c3ccccc3)sc2C)no1 [Example 116, methyl 2-[2-[[3-[2-(5-methyl-2-phenyl-4-thiazolyl)ethoxy]-5-isoxazolyl]methoxy]phenyl]acetate] | 80 to 81 °C
7 | Cc1sc(-c2ccccc2)nc1CCOc1cc(COc2ccccc2CC(=O)O)on1 [Example 117, 2-[2-[[3-[2-(5-methyl-2-phenyl-4-thiazolyl)ethoxy]-5-isoxazolyl]methoxy]phenyl]acetic acid] | 159 to 160 °C
8 | COC(=O)Cc1ccccc1OCc1ccc(OCCc2nc(-c3ccccc3)oc2C)nc1 [Example 118, methyl 2-[2-[[6-[2-(5-methyl-2-phenyl-4-oxazolyl)ethoxy]-3-pyridyl]methoxy]phenyl]acetate] | 78 to 79 °C
9 | COC(=O)Cc1ccccc1OCc1ccc(OCc2nc(-c3ccccc3)sc2C)nc1 [Example 121, methyl 2-[2-[[6-[(5-methyl-2-phenyl-4-thiazolyl)methoxy]-3-pyridyl]methoxy]phenyl]acetate] | 119 to 120 °C
10 | CC(Nc1nc(-c2ccccc2)cs1)c1ccc(COc2ccc(CC(=O)O)cc2)cc1 (stereo not drawn) [Example 128, 4-[4-[methyl(4-phenyl-2-thiazolyl)aminomethyl]benzyloxy]phenylacetic acid] | 116 to 118 °C
11 | Cc1oc(-c2ccccc2)nc1COc1ccc(COc2ncccc2C=CC(=O)O)cc1 [Example 134, 3-[2-[4-[(5-methyl-2-phenyl-4-oxazolyl)methoxy]benzyloxy]-3-pyridyl]propenoic acid] | 174 to 175 °C
12 | CCOC(=O)C=Cc1cccnc1OCc1ccc(OCc2nc(-c3ccco3)oc2C)c(OC)c1 [Example 135, ethyl 3-[2-[4-[[2-(2-furyl)-5-methyl-4-oxazolyl]methoxy]-3-methoxybenzyloxy]-3-pyridyl]propenoate] | 85 to 87 °C

Now from value to molecule:

Row | melting point | SMILES
13 | 135 to 136 °C | CCOc1cc(OCc2ccc(OCc3nc(-c4ccccc4)oc3C)cc2)ccc1CCC(=O)O [Example 66, 3-[2-ethoxy-4-[4-[(5-methyl-2-phenyl-4-oxazolyl)methoxy]benzyloxy]phenyl]propionic acid]
14 | 112 to 113 °C | CCOc1cc(OCc2ccccc2OCc2nc(-c3ccccc3)oc2C)ccc1CCC(=O)O [Example 73, 3-[2-ethoxy-4-[2-[(5-methyl-2-phenyl-4-oxazolyl)methoxy]benzyloxy]phenyl]propionic acid]
15 | 141 to 142 °C | Cc1oc(-c2ccccc2)nc1COc1cncc(COc2ccc(CC(=O)O)cc2)c1 [Example 75, 2-[4-[5-[(5-methyl-2-phenyl-4-oxazolyl)methoxy]-3-pyridylmethoxy]phenyl]acetic acid]
16 | 158 to 159 °C | Cc1oc(-c2ccccc2)nc1COc1cccc(COc2cncc(CC(=O)O)c2)c1 [Example 76, 2-[5-[3-[(5-methyl-2-phenyl-4-oxazolyl)methoxy]benzyloxy]-3-pyridyl]acetic acid]
17 | 115 to 116 °C | CCCc1oc(-c2ccccc2)nc1COc1ccc(COc2cccc(CC(=O)O)c2)cc1 [Example 87, 2-[3-[4-[(2-phenyl-5-propyl-4-oxazolyl)methoxy]benzyloxy]phenyl]acetic acid]
18 | 153 to 154 °C | Cc1oc(-c2ccccc2)nc1CCc1nc(COc2cccc(CC(=O)O)c2)cs1 [Example 105, 2-[3-[[2-[2-(5-methyl-2-phenyl-4-oxazolyl)ethyl]-4-thiazolyl]methoxy]phenyl]acetic acid]
19 | 93 to 94 °C | Cc1oc(-c2ccccc2)nc1CCc1noc(COc2cccc(CC(=O)O)c2)n1 [Example 109, 2-[3-[[3-[2-(5-methyl-2-phenyl-4-oxazolyl)ethyl]-1,2,4-oxadiazol-5-yl]methoxy]phenyl]acetic acid]
20 | 134 to 135 °C | Cc1oc(-c2ccccc2)nc1CCOc1ccc(COc2ncccc2CC(=O)O)cc1 [Example 111, 2-[2-[4-[2-(5-methyl-2-phenyl-4-oxazolyl)ethoxy]benzyloxy]-3-pyridyl]acetic acid]
21 | 88 to 89 °C | COC(=O)Cc1cccc(OCc2ccc(OC)c(OCc3nc(-c4ccccc4)oc3C)c2)c1 [Example 131, methyl 3-[4-methoxy-3-[(2-phenyl-5-methyl-4-oxazolyl)methoxy]benzyloxy]phenylacetate]
22 | 81 to 82 °C | Cc1oc(-c2ccccc2)nc1COc1cccc(CSc2cccc(CC(=O)O)c2)c1 [Example 139, 2-[3-[3-[(5-methyl-2-phenyl-4-oxazolyl)methoxy]benzylthio]phenyl]acetic acid]
23 | 120 to 121 °C | Cc1oc(-c2ccccc2)nc1COc1cccc(CSc2cccc(CCC(=O)O)c2)c1 [Example 140, 3-[3-[3-[(5-methyl-2-phenyl-4-oxazolyl)methoxy]benzylthio]phenyl]propionic acid]
24 | 150 to 151 °C | Cc1oc(-c2ccccc2)nc1COc1cccc(CSc2ccc(CC(=O)O)cc2Cl)c1 [Example 142, 2-[3-chloro-4-[3-[(5-methyl-2-phenyl-4-oxazolyl)methoxy]benzylthio]phenyl]acetic acid]
